Data reported in BindingDB's records for doi:10.1016/s0196-9781(98)00023-0 (Hungarian Academy of Sciences, 1998).
“And” between values parts separate entries of the source, which are not always exact repeats. Equal values may be shown once. Non-standard residues stand in square brackets, D forms with d. Residues, ends and D or L forms follow the SMILES beside them. Tic = O=C(O)[C@@H]1Cc2ccccc2CN1

How the values were obtained:
Mu-type opioid receptor = Mu-type opioid receptor (Rattus norvegicus, UniProt P33535)
Sequence of Mu-type opioid receptor (P33535 whole entry): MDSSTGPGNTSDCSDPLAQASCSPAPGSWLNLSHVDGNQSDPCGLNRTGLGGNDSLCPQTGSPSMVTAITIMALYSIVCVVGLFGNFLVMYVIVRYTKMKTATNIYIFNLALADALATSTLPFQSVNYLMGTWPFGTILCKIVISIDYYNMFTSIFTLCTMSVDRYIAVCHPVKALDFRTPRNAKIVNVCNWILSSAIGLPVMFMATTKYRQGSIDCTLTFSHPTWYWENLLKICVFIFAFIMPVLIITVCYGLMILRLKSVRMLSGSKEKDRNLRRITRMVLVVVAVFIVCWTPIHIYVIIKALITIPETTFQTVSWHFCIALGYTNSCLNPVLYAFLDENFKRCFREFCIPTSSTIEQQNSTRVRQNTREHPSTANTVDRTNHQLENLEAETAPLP

[1] = molecular target: Delta-type opioid receptor (Rattus norvegicus, UniProt P33533)
Sequence of Delta-type opioid receptor (P33533 whole entry): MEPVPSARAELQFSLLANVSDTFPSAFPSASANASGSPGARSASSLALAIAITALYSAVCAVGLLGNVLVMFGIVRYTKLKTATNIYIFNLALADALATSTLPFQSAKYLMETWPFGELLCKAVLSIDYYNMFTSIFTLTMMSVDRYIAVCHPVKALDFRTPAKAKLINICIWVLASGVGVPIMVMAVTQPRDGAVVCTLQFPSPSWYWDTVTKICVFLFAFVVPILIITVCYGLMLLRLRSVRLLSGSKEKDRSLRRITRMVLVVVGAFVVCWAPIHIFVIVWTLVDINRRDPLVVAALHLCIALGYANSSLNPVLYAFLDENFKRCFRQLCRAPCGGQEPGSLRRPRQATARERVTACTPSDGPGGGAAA

SMILES	Ki (Mu-type opioid receptor)	Ki [1]
COc1cccc2c1[C@]13CCN(CC4CC4)C(C2)[C@]1(OC)CCC(=O)C3	4.59 nM and 7.23 nM	
CC(C)C[C@H](NC(=O)[C@H](Cc1ccccc1)NC(=O)CNC(=O)[C@@H](CO)NC(=O)[C@@H](N)Cc1ccc(O)cc1)C(=O)N[C@H](C(=O)O)[C@@H](C)O [DSLET-OH]		7.34 nM and 8.71 nM
Oc1ccc2c3c1OC1c4[nH]c5ccccc5c4CC4(O)[C@H](C2)N(CC2CC2)CCC314 (some centres undefined) [NALTRINDOLE]		10.8 nM and 25.7 nM
N[C@@H](Cc1ccc(O)cc1)C(=O)N1Cc2ccccc2C[C@H]1C(=O)N[C@@H](Cc1ccccc1)C(=O)N[C@@H](Cc1ccccc1)C(=O)O [TIPP] (H-Y[Tic]FF-OH)		9150 nM and 1700 nM
